Test system: Methicillin-Resistant Staphylococcus Aureus (MRSA)
Experiment: MRSA bacteriocidal effects, plates with no growth
Format: cell-based
Parameters: concentration or dose not given beside the values
Details: fluids in combination with oxacillin

Measured: Percentage of plates with no growth at indicated time

Cc1onc(-c2ccccc2)c1C(=O)N[C@@H]1C(=O)N2[C@@H]1SC(C)(C)[C@@H]2C(=O)O [Drug, oxacillin]
0.00%: 30 min | 120 min | 240 min | 480 min | 1080 min | 1440 min
16.67%: 0 min

From patent US20100310665A1, “BACTERIOSTATIC OR BACTERIOCIDAL COMPOSITIONS AND METHODS” (Revalesio Corporation, priority 2007, published 2010)
